# Experimental data: ChEMBL document CHEMBL5233285, “Recent Update on the Development of PCSK9 Inhibitors for Hypercholesterolemia Treatment” (J Med Chem, 2022)
# Tests used:
# [1] = target: T1, Proprotein convertase subtilisin/kexin type 9 (Homo sapiens, UniProt Q8NBP7); experiment: Inhibition of PCSK9 (unknown origin)
# PCSK9/LDLR [2] = target: T2, PCSK9/LDLR (Homo sapiens, UniProt Q8NBP7); experiment: Inhibition of PCSK9-LDLR (unknown origin) protein-protein interaction; format: protein assay
# T2 sequence (Q8NBP7 31-152 limits assumed): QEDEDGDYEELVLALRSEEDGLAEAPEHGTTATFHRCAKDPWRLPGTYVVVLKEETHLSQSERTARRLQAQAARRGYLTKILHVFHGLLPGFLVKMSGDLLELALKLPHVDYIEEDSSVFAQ
# T2 sequence (Q8NBP7 153-692 limits assumed): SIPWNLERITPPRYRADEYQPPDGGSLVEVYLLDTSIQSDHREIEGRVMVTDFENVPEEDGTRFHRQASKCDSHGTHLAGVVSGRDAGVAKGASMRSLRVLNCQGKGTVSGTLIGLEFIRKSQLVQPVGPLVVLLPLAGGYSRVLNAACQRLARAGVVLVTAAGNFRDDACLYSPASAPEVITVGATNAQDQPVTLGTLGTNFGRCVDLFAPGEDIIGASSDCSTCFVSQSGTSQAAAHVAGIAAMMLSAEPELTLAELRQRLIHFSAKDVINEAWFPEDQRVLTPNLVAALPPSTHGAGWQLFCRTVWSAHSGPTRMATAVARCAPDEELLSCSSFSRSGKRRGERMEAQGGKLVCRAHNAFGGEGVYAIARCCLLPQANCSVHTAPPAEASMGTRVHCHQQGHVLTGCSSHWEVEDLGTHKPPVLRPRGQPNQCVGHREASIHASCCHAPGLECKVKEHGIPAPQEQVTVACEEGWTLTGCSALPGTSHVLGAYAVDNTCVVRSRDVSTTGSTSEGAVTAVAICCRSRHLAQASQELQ
# T2 sequence (P01130 22-860 partner limits assumed): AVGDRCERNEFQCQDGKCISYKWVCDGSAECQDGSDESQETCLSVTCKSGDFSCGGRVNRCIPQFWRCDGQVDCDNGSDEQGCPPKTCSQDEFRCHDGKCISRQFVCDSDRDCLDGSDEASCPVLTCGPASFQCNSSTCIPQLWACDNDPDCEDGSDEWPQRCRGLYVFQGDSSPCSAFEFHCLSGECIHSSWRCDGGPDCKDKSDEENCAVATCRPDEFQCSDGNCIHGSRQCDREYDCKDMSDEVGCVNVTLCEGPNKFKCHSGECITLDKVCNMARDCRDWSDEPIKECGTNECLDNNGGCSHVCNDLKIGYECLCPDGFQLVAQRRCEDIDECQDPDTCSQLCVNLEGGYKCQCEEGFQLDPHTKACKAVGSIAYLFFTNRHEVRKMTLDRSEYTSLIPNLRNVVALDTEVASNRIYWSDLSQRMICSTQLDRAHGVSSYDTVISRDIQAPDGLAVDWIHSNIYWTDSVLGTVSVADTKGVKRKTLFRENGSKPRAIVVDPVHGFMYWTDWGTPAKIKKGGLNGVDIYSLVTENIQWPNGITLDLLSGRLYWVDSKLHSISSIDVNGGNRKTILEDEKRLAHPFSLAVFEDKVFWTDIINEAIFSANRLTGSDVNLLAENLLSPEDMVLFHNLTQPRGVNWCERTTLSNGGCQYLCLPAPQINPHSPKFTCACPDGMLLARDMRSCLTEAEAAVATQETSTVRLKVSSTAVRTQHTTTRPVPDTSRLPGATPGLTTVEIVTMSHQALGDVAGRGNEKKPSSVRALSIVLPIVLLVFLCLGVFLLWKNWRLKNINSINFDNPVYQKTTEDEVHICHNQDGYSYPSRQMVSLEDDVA
# [3] = target: T1, Proprotein convertase subtilisin/kexin type 9; experiment: Inhibition of PCSK9 in human HepG2 cells assessed as increase in LDL uptake at 10 uM; format: cell-based
# [4] = target: T1, Proprotein convertase subtilisin/kexin type 9; experiment: Inhibition of PCSK9 in human HepG2 cells assessed as restoration of LDLR; format: cell-based
# [5] = target: T1, Proprotein convertase subtilisin/kexin type 9; experiment: Inhibition of PCSK9 in human HepG2 cells assessed as increase in LDL uptake; format: cell-based
# [6] = target: T1, Proprotein convertase subtilisin/kexin type 9; experiment: Binding affinity to human PCSK9
# PCSK9/LDLR [7] = target: T2, PCSK9/LDLR; experiment: Inhibition of PCSK9-LDLR protein-protein interaction in human HepG2 cells assessed as increase in LDL uptake; format: cell-based
# Mus musculus [8] = experiment: Hypocholesterolemic activity in C57BL/6 mouse assessed as reduction in TC level at 30 mg/kg; format: functional; design: scale not given: the % may be the effect or the level left
# Mus musculus [9] = experiment: Hypocholesterolemic activity in C57BL/6 mouse assessed as increase in LDLR level at 30 mg/kg; format: functional
# [10] = target: Proprotein convertase subtilisin/kexin type 9 (Mus musculus, UniProt Q80W65); experiment: Binding affinity to mouse PCSK9
# Chain of Proprotein convertase subtilisin/kexin type 9 (Mus musculus, UniProt Q80W65) (Q80W65 35-155 limits assumed): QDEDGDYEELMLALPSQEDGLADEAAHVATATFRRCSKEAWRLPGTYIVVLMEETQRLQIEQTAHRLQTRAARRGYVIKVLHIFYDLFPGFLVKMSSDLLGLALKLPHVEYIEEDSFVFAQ
# Chain of Proprotein convertase subtilisin/kexin type 9 (Mus musculus, UniProt Q80W65) (Q80W65 156-694 limits assumed): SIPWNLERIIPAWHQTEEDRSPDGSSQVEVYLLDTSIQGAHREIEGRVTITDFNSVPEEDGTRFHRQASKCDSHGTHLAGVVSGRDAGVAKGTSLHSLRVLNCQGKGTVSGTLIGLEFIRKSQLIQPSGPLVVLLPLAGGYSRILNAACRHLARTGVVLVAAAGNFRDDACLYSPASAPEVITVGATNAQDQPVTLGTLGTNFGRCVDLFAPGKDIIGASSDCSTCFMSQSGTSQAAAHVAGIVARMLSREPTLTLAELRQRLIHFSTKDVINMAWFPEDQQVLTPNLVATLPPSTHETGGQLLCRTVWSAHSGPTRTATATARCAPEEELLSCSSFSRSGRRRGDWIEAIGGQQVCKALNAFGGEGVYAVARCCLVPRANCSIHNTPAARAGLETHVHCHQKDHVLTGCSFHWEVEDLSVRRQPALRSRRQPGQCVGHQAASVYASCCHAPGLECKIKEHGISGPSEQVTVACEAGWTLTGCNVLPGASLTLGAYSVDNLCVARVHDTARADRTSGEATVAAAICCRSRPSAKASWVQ
# T1 sequence (Q8NBP7 31-152 limits assumed): as the sequence (Q8NBP7 31-152 limits assumed) above
# T1 sequence (Q8NBP7 153-692 limits assumed): as the sequence (Q8NBP7 153-692 limits assumed) above
IC50 [1] [nM],IC50 (PCSK9/LDLR [2]) [nM],inhibition [3] [%],EC50 [4] [nM],EC50 [5] [nM],Kd [6] [nM],EC50 (PCSK9/LDLR [7]) [nM],Kd [10] [nM],SMILES,Activity (Mus musculus [8]) [%],Activity (Mus musculus [9]) [%]
230,,,,,,,,CC(=O)N[C@H](CSCc1cn(CCCCCC(=O)NCCOCCOCCOCCOCCOCCOCCOCCOCCOCCOCCC(=O)NCCCC[C@H](NC(=O)COCCOCCOCCOCCOCCOCCOCCOCCOCCOCCNC(=O)C(N)CCCCn2cc(CSC[C@@H](NC(C)=O)C(=O)N[C@H](C(=O)N[C@H](C(=O)N[C@@H](Cc3ccccc3)C(=O)N[C@H](C(=O)N[C@@H](CO)C(=O)N[C@@H](Cc3c[nH]c4ccccc34)C(=O)N[C@@H](CCC(=O)O)C(=O)N[C@@H](CCC(=O)O)C(=O)N[C@@H](Cc3ccc(O)cc3)C(=O)N[C@@H](CC(C)C)C(=O)N[C@@H](CC(=O)O)C(=O)N[C@@H](Cc3c[nH]c4ccccc34)C(=O)N[C@H](C(=O)N[C@@H](CCCNC(=N)N)C(=O)N[C@@H](CCCNC(=N)N)C(=O)NCC(=O)O)C(C)C)[C@@H](C)O)C(C)C)[C@@H](C)O)nn2)C(=O)NCC(=O)N[C@@H](CCCNC(=N)N)C(=O)N[C@@H](CCCNC(=N)N)C(=O)N[C@@H](CCCCN)C(=O)N[C@@H](Cc2c[nH]c3ccccc23)C(N)=O)nn1)C(=O)N[C@H](C(=O)N[C@H](C(=O)N[C@@H](Cc1ccccc1)C(=O)N[C@H](C(=O)N[C@@H](CO)C(=O)N[C@@H](Cc1c[nH]c2ccccc12)C(=O)N[C@@H](CCC(=O)O)C(=O)N[C@@H](CCC(=O)O)C(=O)N[C@@H](Cc1ccc(O)cc1)C(=O)N[C@@H](CC(C)C)C(=O)N[C@@H](CC(=O)O)C(=O)N[C@@H](Cc1c[nH]c2ccccc12)C(=O)N[C@H](C(=O)N[C@@H](CCCNC(=N)N)C(=O)N[C@@H](CCCNC(=N)N)C(=O)NCC(=O)O)C(C)C)[C@@H](C)O)C(C)C)[C@@H](C)O (stereo partly specified),,
,800,56.5,5000,6000,,,,CC(=O)N[C@H](C(=O)N[C@H](C(=O)N[C@@H](Cc1ccccc1)C(=O)N[C@H](C(=O)N[C@@H](CO)C(=O)N[C@@H](Cc1c[nH]c2ccccc12)C(=O)N[C@@H](CCC(=O)O)C(=O)N[C@@H](CCC(=O)O)C(=O)N[C@@H](Cc1ccc(O)cc1)C(=O)N[C@@H](CC(C)C)C(=O)N[C@@H](CC(=O)O)C(=O)N[C@@H](Cc1c[nH]c2ccccc12)C(=O)N[C@H](C(N)=O)C(C)C)[C@@H](C)O)C(C)C)[C@@H](C)O,,
,2,,,,6.1,170,21,CCNC(=O)[C@@H]1CSCC(=O)N[C@@H](Cc2ccccc2)C(=O)N[C@@H](C(C)C)C(=O)N2CCC[C@H]2C(=O)N[C@@H]([C@@H](C)O)C(=O)N[C@@H]([C@@H](C)O)C(=O)N[C@@H](Cc2ccc(-c3ccccc3)cc2)C(=O)N(C)[C@@H](C)C(=O)N[C@@H](Cc2ccc(-c3ccccc3)cc2)C(=O)N(C)[C@@H](C)C(=O)N[C@@H](CCC(=O)O)C(=O)N[C@@H](C)C(=O)N2CCC[C@H]2C(=O)N1,43,90
